One data set addresses FGFR-4 kinase (Homo sapiens, UniProt P22455). Briefly: FGFR-4 kinase activity, homogeneous time-resolved fluorescence (HTRF) method. The format is biochemical. The note with it: ATP 25 μM, FGFR-4 kinase 1 nM, read-out: FGFR4 IC50. The protocol: 1. In vitro determination of the protein activity of compounds: The FGFR-4 kinase activity detection platform was established by the homogeneous time-resolved fluorescence (HTRF) method, and the activity of the compound was determined. 1000 μM compounds were subjected to 3-fold gradient dilution in 100% DMSO 11 times (12 concentrations in total), 4 μL diluent from each concentration was added to 96 μL of reaction buffer (50 mM HEPES, pH 7.4, 5 mM MnCl2, 0.1 mM NaVO3, 0.001% Tween-20, 0.01% BAS, 1 mM DTT) and mixed well, as a 4* compound (final concentration of 0.017 nM-1000 nM) for later use. 2 * FGFR-4 kinase (final concentration of 1 nM) was formulated using reaction buffer and 4*substrate (ATP+TK peptide) (TK peptide, HTRF® KinEASETM-TK, purchased from Cisbio, TK peptide, final concentration of 1 μM, ATP final concentration of 25 μ M) was formulated using reaction buffer. 2.5 μL of 4*compound and then 5 μL of 2 * FGFR-4 kinase were added to a 384-well plate (OptiPlate-384, purchased from PerkinElmer), the mixture was mixed by centrifugation, and 2.5 μL of 4 * substrate mixture was added to start the reaction (total reaction volume of 10 µL). The 384-well plate was placed in an incubator 23° C. and stirred for 60 min before the reaction was stopped by the addition of 5 μL of Eu^3+cryptate-labeled anti-phosphotyrosine antibody (TRF® KinEASE™-TK, purchased from Cisbio) and 5 μL of Streptavidin-XL-665 (HTRF® KinEASE™-TK, purchased from Cisbio). After incubation in the incubator for 1 h, fluorescence values (excitation at 320 nm, detecting emitted light at 665 nm and 620 nm, and a ratio of the two as enzyme activity) were read on Envision (purchased from PerkinElmer). The enzyme activity of each compound was measured at 12 concentrations, and the ICso value of the compound was calculated using GraphPad Prism 5.0 software.
The FGFR-4 kinase activity detection platform was established by homogeneous time-resolved fluorescence (HTRF) method, and the activity of compound was determined. 1000 μM compounds were subjected to 3-fold gradient dilution in 100% DMSO 11 times (12 concentrations in total), 4 μL of diluent from each concentration was added to 96 μL of reaction buffer (50 mM HEPES, pH 7.4, 5 mM MnCl2, 0.1 mM NaVO3, 0.001% Tween-20, 0.01% BAS, 1 mM DTT) and mixed well, as a 4* compound (final concentration of 0.017 nM-1000 nM) for later use. 2 * FGFR-4 kinase (final concentration of 1 nM) was formulated using reaction buffer and 4*substrate (ATP+TK peptide)(TK peptide, HTRF® KinEASE™-TK, purchased from Cisbio, TK peptide, final concentration of 1 μM, ATP final concentration of 25 μM) was formulated using reaction buffer. 2.5 μL of 4 * compound and then 5 μL of 2 * FGFR-4 kinase were added to a 384-well plate (OptiPlate-384, purchased from PerkinElmer), the mixture was mixed by centrifugation, and 2.5 μL of 4 * substrate mixture was added to start the reaction (total reaction volume of 10 μL). The 384-well plate was placed in an incubator 23° C. and stirred for 60 min before the reaction was stopped by the addition of 5 μL of Eu^3+cryptate-labled anti-phosphotyrosine antibody (TRF® KinEASE™-TK, purchased from Cisbio) and 5 μL of Streptavidin-XL-665 (HTRF® KinEASE™-TK, purchased from Cisbio). After incubation in the incubator for 1 h, fluorescence values (excitation at 320 nm, detecting emitted light at 665 nm and 620 nm, and a ratio of the two as enzyme activity) were read on Envision (purchased from PerkinElmer). The enzyme activity of each compopund was measured at 12 concentrations, and the ICso value of the compound was calculated using GraphPad prism 5.0 software.

A short description of data set [1]: Pharmacokinetics in male SD rats, single intragastric administration. The note with it: 5 mg/kg suspension, plasma; for AUC(0-inf) / Cmax / Tmax / half-life: rat, po. It counts as in vivo. As for the experimental part: (§1) Male SD rats (Beijing Vital River Laboratory Animal Technology Co., Ltd.) were divided into groups of 3 rats each. The rats were subjected to 5 mg/kg suspension of the test sample by single intragastric administration, respectively. Animals were fasted overnight prior to the experiment from 10 h before dosing to 4 h after dosing. Blood was collected 0.25, 0.5, 1, 2, 4, 6, 8, and 24 h after administration. After isoflurane anesthesia using a small animal anesthesia machine, 0.3 mL of whole blood samples was collected from the fundus venous plexus, placed in a heparin anticoagulant tube, and were centrifuged at 4° C., 4000 rpm for 5 min, plasma was transferred to the centrifuge tube, and stored at −80° C. until analysis. Samples in the plasma were extracted using protein precipitation and the extracts were analyzed by LC/MS/MS.
as §1, with “taken through” for “collected from”, “-80°” for “−80°”

The test system of data set [2] is Human hepatoma cells Hep3b. In words: Cell proliferation inhibition, Cell Titer-Glo. It counts as cell-based. Particulars: Hep3B, 72 h. As for the experimental part:
2. Determination of cell proliferation activity of compounds:
Cell Titer-Glo ® detection reagent from Promega was used to establish the suspension cell proliferation inhibition screening method. Human hepatoma cells Hep3b (Xiehe Cell Research Center) were cultured in 25 cm^2 or 75 cm^2 plastic tissue culture flasks (Corning®) filled with MEM (Gibco®) medium supplemented with 10% fetal bovine serum (Hyclone®) under 37° C., 95% air and 5% CO2, and subcultured 2-3 times a week.
(§2) Hep3b cells were seeded in a 96-well cell culture plate (Corning®) at a density of 3×10^3 cells/well, […], and cultured under 37° C., 95% air, and 5% CO2. After 24 h the test compound was added: 10 mM compounds (dissolved in DMSO) were subjected to 3-fold gradient dilution in DMSO , […] of diluent from each concentration was added to […] of serum-free medium, and finally […] of compound diluted in the medium was added to the plate seeded with cells. The final concentration of DMSO in the cell culture medium was 0.1% and the final concentration of the test compound was 0.3 nM-[…]. The above cells were incubated for 3 days under 37° C.
After 3 days, the cell viability assay was performed by the Cell Titer-Glo (Promega) kit, and finally, the inhibitory concentration 50% of the compound on cell proliferation, i.e. the IC 50 value, was calculated by the GraphPad Prism 5.0 program.
as §2, with “DMSO,” for “DMSO ,”, “finally,” for “finally”, “of” for “of the”
After 3 days, the cell viability assay was performed by the Cell Titer-Glo (Promega) kit, and finally the inhibitory concentration 50% of the compound on cell proliferation, i.e. the IC 50 value, was calculated by the GraphPad Prism 5.0 program.

The next data set has as its system FGFR1-4. Particulars: background art; equally high-efficiency inhibition of FGFR1-4; cited from earlier work.
The mark [3] stands for this setting: first PK table, read-out: T1/2 (converted).
[4] abbreviates: second PK table, read-out: T½ (converted).

Where two headings read alike, the source gives them in different places.

We go through seven compounds from US20220185811A1, “FGFR4 KINASE INHIBITOR AND PREPARATION METHOD THEREFOR AND USE THEREOF” (SHOUYAO HOLDINGS (BEIJING) CO., LTD., priority 2019, published 2022).

FGFR-4 kinase, sequence (P22455 22-802): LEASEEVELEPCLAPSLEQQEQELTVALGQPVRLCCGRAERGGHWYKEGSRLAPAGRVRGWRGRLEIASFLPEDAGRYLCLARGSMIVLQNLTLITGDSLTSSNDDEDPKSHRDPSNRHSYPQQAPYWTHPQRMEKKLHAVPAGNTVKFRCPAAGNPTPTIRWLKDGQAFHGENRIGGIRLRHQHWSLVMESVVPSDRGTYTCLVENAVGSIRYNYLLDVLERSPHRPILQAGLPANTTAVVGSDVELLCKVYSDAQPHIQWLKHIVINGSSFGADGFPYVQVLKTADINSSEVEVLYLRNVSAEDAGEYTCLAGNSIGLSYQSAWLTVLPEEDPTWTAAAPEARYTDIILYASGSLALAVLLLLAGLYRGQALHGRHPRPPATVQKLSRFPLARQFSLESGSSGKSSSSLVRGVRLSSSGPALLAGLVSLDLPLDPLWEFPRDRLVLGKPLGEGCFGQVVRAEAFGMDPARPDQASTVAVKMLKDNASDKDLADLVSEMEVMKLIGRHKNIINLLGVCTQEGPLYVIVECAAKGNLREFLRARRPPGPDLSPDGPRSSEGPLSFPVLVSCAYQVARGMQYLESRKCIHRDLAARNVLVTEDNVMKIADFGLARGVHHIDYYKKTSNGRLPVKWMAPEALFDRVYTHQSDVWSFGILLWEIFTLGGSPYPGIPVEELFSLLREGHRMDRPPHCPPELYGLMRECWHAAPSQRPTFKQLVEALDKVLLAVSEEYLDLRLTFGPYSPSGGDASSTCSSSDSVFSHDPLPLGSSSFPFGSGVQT

For orientation: IC50 means the concentration at which inhibition is half-maximal. As usually defined, the AUC(0-inf) is total exposure, with the tail of the curve extrapolated. A higher AUC(0-inf) goes with more exposure. As a reminder, the Cmax is the peak of the concentration-time curve. Broadly, the Tmax is the time at which the peak concentration occurs. As to `C=CC(=O)N[C@H]1CCOC[C@H]1Nc1ncc2cc(-c3c(Cl)c(OC)cc(OC)c3Cl)ccc2n1` [Blu-554, reference compound], the IC50 at FGFR-4 kinase (Table 1) was 0.00749 µM; at FGFR-4 kinase (Table 2), 0.00221 µM; in data set [2] (Table 1, 3 days incubation), 0.162 µM; in data set [2] (Table 2, 3 days incubation), 0.0661 µM. In addition, the “T½” value in data set [1] (second PK table) is 1.64 h. The compound also returned an AUC(0-inf) in data set [1] (first PK table) of 1680 ng·h/mL. In data set [1] (first PK table), the peak concentration (Cmax) was found to be 362 ng/mL. In addition, in data set [1] (first PK table), the time to peak (Tmax) turned out to be 2.67 h. In addition, the half-life in data set [1] (setting [3]) was 1.64 h.

Regarding `C=CC(=O)Nc1cc(-c2cc3c(cn2)cc(-c2c(Cl)c(OC)cc(OC)c2Cl)c2nccn23)c(OC)cc1N1C2CCC1COC2` [Example 6, N-(2-(3-oxa-8-azabicyclo[3 .2.1]octan-8-yl)-5-(4-(2,6-dichloro-3,5-dimethoxyphenyl)imidazo[1,2-a][1,6]naphthyridin-8-yl)-4-methoxyphenyl)acrylamide], in data set [1] (first PK table), the AUC(0-inf) came out at 2560 ng·h/mL, the Cmax was determined as 236 ng/mL and the time of peak concentration (Tmax) was 6 h. Besides, the half-life in data set [1] (setting [3]) was 11.5 h. The same compound yielded an IC50 in data set [2] (Table 1, 3 days incubation) of 0.0583 µM.

Regarding `C=CC(=O)Nc1cc(-c2cc3c(cn2)cc(-c2c(Cl)c(OC)cc(OC)c2Cl)c2nccn23)c(OC)cc1N1CCN(C2CC2)CC1` [Example 59], on FGFR-4 kinase (Table 2), the IC50 was determined as 0.0011 µM. In data set [1] (second PK table), the total exposure AUC(0-inf) was 3940 ng·h/mL, the Cmax was determined as 505 ng/mL and the Tmax turned out to be 2.67 h. In addition, the half-life in data set [1] (setting [4]) was 3.97 h. The same compound came in with a half-maximal inhibitory concentration (IC50) in data set [2] (Table 2, 3 days incubation) of 0.0632 µM.

Consider `C=CC(=O)Nc1cc(-c2cc3c(cn2)cc(-c2c(Cl)c(OC)cc(OC)c2Cl)c2nccn23)c(OC)cc1N1C[C@@H]2C[C@H]1CO2` [Example 61, N-(2-((1S,4S)-2-oxa-5-azabicyclo[2.2.1]heptan-5-yl)-5-(4-(2,6-dichloro-3,5-dimethoxyphenyl)imidazo[1,2-a][1,6]naphthyridin-8-yl)-4-methoxyphenyl)acrylamide], for which the half-maximal inhibitory concentration (IC50) at FGFR-4 kinase (Table 2) is 0.0017 µM. In addition, in data set [1] (second PK table), the total exposure AUC(0-inf) turned out to be 3050 ng·h/mL, the Cmax was 561 ng/mL and the time to peak (Tmax) came out at 1.17 h. The half-life in data set [1] (setting [4]) is 2.6 h. In addition, in data set [2] (Table 2, 3 days incubation), the IC50 stood at 0.121 µM.

Take `C=CC(=O)Nc1cc(-c2cc3c(cn2)cc(-c2c(Cl)c(OC)cc(OC)c2Cl)c2nccn23)c(OC)cc1N1CCC2(CCOC2)C1` (stereo not shown) [Example 62, N-(5-(4-(2,6-dichloro-3,5-dimethoxyphenyl)imidazo[1,2-a][1,6]naphthyridin-8-yl)-4-methoxy-2-(2-oxa-7-azaspiro[4, 4]nonan-7-yl)phenyl)acrylamide]: at FGFR-4 kinase (Table 2), the half-inhibitory concentration (IC50) was 0.0024 µM. In data set [1] (second PK table), the AUC(0-inf) was 1120 ng·h/mL, the peak concentration (Cmax) came out at 175 ng/mL and the Tmax amounted to 5.33 h. The half-life in data set [1] (setting [4]) is 4.93 h. Further, the IC50 in data set [2] (Table 2, 3 days incubation) was 0.0438 µM.

Consider `COc1cc(OC)cc(N(CCNC(C)C)c2ccc3ncc(-c4cnn(C)c4)nc3c2)c1` [JNJ-42756493], for which the “IC50 on FGFR1-4” value with FGFR1-4 was “single-digit nanomolar level”.

As to `C[C@@H](Oc1ccc2[nH]nc(/C=C/c3cnn(CCO)c3)c2c1)c1c(Cl)cncc1Cl` [LY2874455], in the data set with FGFR1-4, the “IC50 on FGFR1-4” value was “single-digit nanomolar level”.
